# From ChEMBL document CHEMBL1201862, “PubChem BioAssay data set” (2004)
#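 Results reflect a 48-hour exposure of cells in 96-well plates to compound at five concentrations. Abbreviation: GI50, concentration required for 50% inhibition of growth.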 The source made the active and inactive calls. Cut-off read from the data, not from the text of the source: active = GI50 up to about 1.1 µM and inactive = higher.
# Experiments:
# Assay in all cases: NCI-60 cell line screen, 48 h
# BT-549 = tested on: BT-549
# SF-295 = tested on: SF-295
# SN12C = tested on: SN12C
# RXF 393 = tested on: RXF 393
# OVCAR-3 = tested on: OVCAR-3
# LOX IMVI = tested on: LOX IMVI
# HL-60 = tested on: HL-60
# MCF7 = tested on: MCF7
# NCI/ADR-RES = tested on: NCI/ADR-RES
# DU-145 = tested on: DU-145
# HCT-116 = tested on: HCT-116
# PC-3 = tested on: PC-3
# RPMI-8226 = tested on: RPMI-8226
# UACC-62 = tested on: UACC-62
# HCC 2998 = tested on: HCC 2998
# T47D = tested on: T47D
# HOP-92 = tested on: HOP-92
# SK-OV-3 = tested on: SK-OV-3
# NCI-H522 = tested on: NCI-H522
# Malme-3M = tested on: Malme-3M
SMILES,GI50 (BT-549),GI50 (SF-295),GI50 (SN12C),GI50 (RXF 393),GI50 (OVCAR-3),GI50 (LOX IMVI),GI50 (HL-60),GI50 (MCF7),GI50 (NCI/ADR-RES),GI50 (DU-145),GI50 (HCT-116),GI50 (PC-3),GI50 (RPMI-8226),GI50 (UACC-62),GI50 (HCC 2998),GI50 (T47D),GI50 (HOP-92),GI50 (SK-OV-3),GI50 (NCI-H522),GI50 (Malme-3M)
O=C(CCNC(=O)OCc1ccccc1)OCCCNC(=O)OCc1ccccc1,> 100 µM (inactive),> 100 µM (inactive),> 100 µM (inactive),> 100 µM (inactive),> 100 µM (inactive),> 100 µM (inactive),> 100 µM (inactive),> 100 µM (inactive),> 100 µM (inactive),> 100 µM (inactive),> 100 µM (inactive),> 100 µM (inactive),> 100 µM (inactive),> 100 µM (inactive),> 100 µM (inactive),> 100 µM (inactive),> 100 µM (inactive),> 100 µM (inactive),> 100 µM (inactive),> 100 µM (inactive)
CC(=O)Oc1ccc2c3c1[C@H]1O[C@H]1c1cccc(c1-3)[C@@H]1O[C@H]21,8.97 µM (inactive),10 µM (inactive),2.69 µM (inactive),0.409 µM (active),3.18 µM (inactive),1.81 µM (inactive),1.82 µM (inactive),18.4 µM (inactive),10 µM (inactive),7.83 µM (inactive),11.2 µM (inactive),13.5 µM (inactive),3.22 µM (inactive),8 µM (inactive),7.78 µM (inactive),2.09 µM (inactive),9.68 µM (inactive),14.6 µM (inactive),1.9 µM (inactive),2.72 µM (inactive)
CC(C)=CC(=O)c1[nH]c2ccccc2c1CC(=O)NCCc1cn(C(c2ccccc2)(c2ccccc2)c2ccccc2)cn1,3.25 µM (inactive),4.57 µM (inactive),2.81 µM (inactive),2.81 µM (inactive),3.84 µM (inactive),2.02 µM (inactive),1.26 µM (inactive),2.99 µM (inactive),3.17 µM (inactive),5.13 µM (inactive),2.77 µM (inactive),2.46 µM (inactive),1.98 µM (inactive),1.97 µM (inactive),1.97 µM (inactive),3.77 µM (inactive),2.49 µM (inactive),13.5 µM (inactive),6.71 µM (inactive),5.78 µM (inactive)
CCOC(=O)c1c(N)nn2c1cc1cccccc12,25.3 µM (inactive),25.1 µM (inactive),32.9 µM (inactive),6.14 µM (inactive),28.2 µM (inactive),25.1 µM (inactive),32.5 µM (inactive),16 µM (inactive),25.9 µM (inactive),32.1 µM (inactive),33.5 µM (inactive),23.6 µM (inactive),18.3 µM (inactive),23.6 µM (inactive),30 µM (inactive),22.6 µM (inactive),33.5 µM (inactive),26.8 µM (inactive),20.1 µM (inactive),27.8 µM (inactive)
